Experimental data: the CheMixHub viscosity set
“And” between values parts separate entries of the source, which are not always exact repeats. Identical values can stand only once.

Assay: xn = mol fraction of the nth substance listed

[Ca+2].[Cl-].[Cl-] + O
Settings | viscosity [mPa·s]
293.15 K, 101 kPa, x1 = 0.059 | 2.97
298.15 K, 101 kPa, x1 = 0.000396 | 0.8977
298.15 K, 101 kPa, x1 = 0.00043 | 0.8982
298.15 K, 101 kPa, x1 = 0.00081 | 0.9042
298.15 K, 101 kPa, x1 = 0.000844 | 0.9046
298.15 K, 101 kPa, x1 = 0.00106 | 0.9082
298.15 K, 101 kPa, x1 = 0.00107 | 0.9081
298.15 K, 101 kPa, x1 = 0.00123 | 0.9106
298.15 K, 101 kPa, x1 = 0.0013 | 0.9117
298.15 K, 101 kPa, x1 = 0.00147 | 0.9145
298.15 K, 101 kPa, x1 = 0.00151 | 0.9149
298.15 K, 101 kPa, x1 = 0.00175 | 0.9186
298.15 K, 101 kPa, x1 = 0.002367 | 0.9277
298.15 K, 101 kPa, x1 = 0.002527 | 0.9302
298.15 K, 101 kPa, x1 = 0.002586 | 0.9311
298.15 K, 101 kPa, x1 = 0.003329 | 0.9425
298.15 K, 101 kPa, x1 = 0.003395 | 0.9435
298.15 K, 101 kPa, x1 = 0.003497 | 0.945
298.15 K, 101 kPa, x1 = 0.003672 | 0.9476
298.15 K, 101 kPa, x1 = 0.004546 | 0.9609
298.15 K, 101 kPa, x1 = 0.004721 | 0.9637
298.15 K, 101 kPa, x1 = 0.005244 | 0.9719
298.15 K, 101 kPa, x1 = 0.006244 | 0.9873
298.15 K, 101 kPa, x1 = 0.007041 | 1
298.15 K, 101 kPa, x1 = 0.007167 | 1.002
298.15 K, 101 kPa, x1 = 0.007446 | 1.006
298.15 K, 101 kPa, x1 = 0.008695 | 1.027
298.15 K, 101 kPa, x1 = 0.009449 | 1.039
298.15 K, 101 kPa, x1 = 0.009885 | 1.046
298.15 K, 101 kPa, x1 = 0.01022 | 1.052
298.15 K, 101 kPa, x1 = 0.01042 | 1.055
298.15 K, 101 kPa, x1 = 0.01059 | 1.058
298.15 K, 101 kPa, x1 = 0.01077 | 1.061
298.15 K, 101 kPa, x1 = 0.01094 | 1.064
298.15 K, 101 kPa, x1 = 0.01192 | 1.081
298.15 K, 101 kPa, x1 = 0.01272 | 1.095
298.15 K, 101 kPa, x1 = 0.01378 | 1.114
298.15 K, 101 kPa, x1 = 0.01401 | 1.118
298.15 K, 101 kPa, x1 = 0.01513 | 1.139
298.15 K, 101 kPa, x1 = 0.01538 | 1.143
298.15 K, 101 kPa, x1 = 0.01928 | 1.219
298.15 K, 101 kPa, x1 = 0.02043 | 1.243
298.15 K, 101 kPa, x1 = 0.02048 | 1.244
298.15 K, 101 kPa, x1 = 0.02097 | 1.254
298.15 K, 101 kPa, x1 = 0.02327 | 1.304
298.15 K, 101 kPa, x1 = 0.02529 | 1.35
298.15 K, 101 kPa, x1 = 0.02589 | 1.364
298.15 K, 101 kPa, x1 = 0.0267 | 1.383
298.15 K, 101 kPa, x1 = 0.027 | 1.391
298.15 K, 101 kPa, x1 = 0.02942 | 1.451
298.15 K, 101 kPa, x1 = 0.02988 | 1.464
298.15 K, 101 kPa, x1 = 0.03066 | 1.484
298.15 K, 101 kPa, x1 = 0.03069 | 1.485
298.15 K, 101 kPa, x1 = 0.0311 | 1.496
298.15 K, 101 kPa, x1 = 0.03274 | 1.541
298.15 K, 101 kPa, x1 = 0.03315 | 1.553
298.15 K, 101 kPa, x1 = 0.03378 | 1.572
298.15 K, 101 kPa, x1 = 0.03442 | 1.59
298.15 K, 101 kPa, x1 = 0.03633 | 1.648
298.15 K, 101 kPa, x1 = 0.03656 | 1.654
298.15 K, 101 kPa, x1 = 0.03673 | 1.66
298.15 K, 101 kPa, x1 = 0.03831 | 1.711
298.15 K, 101 kPa, x1 = 0.03856 | 1.719
298.15 K, 101 kPa, x1 = 0.04162 | 1.824
298.15 K, 101 kPa, x1 = 0.04322 | 1.883
298.15 K, 101 kPa, x1 = 0.04455 | 1.933
298.15 K, 101 kPa, x1 = 0.04537 | 1.967
298.15 K, 101 kPa, x1 = 0.04781 | 2.068
298.15 K, 101 kPa, x1 = 0.04866 | 2.105
298.15 K, 101 kPa, x1 = 0.0498 | 2.157
298.15 K, 101 kPa, x1 = 0.0506 | 2.194
298.15 K, 101 kPa, x1 = 0.0536 | 2.342
298.15 K, 101 kPa, x1 = 0.05494 | 2.412
298.15 K, 101 kPa, x1 = 0.05842 | 2.611
298.15 K, 101 kPa, x1 = 0.06081 | 2.761
298.15 K, 101 kPa, x1 = 0.06128 | 2.791
298.15 K, 101 kPa, x1 = 0.065 | 3.054
298.15 K, 101 kPa, x1 = 0.06579 | 3.114
298.15 K, 101 kPa, x1 = 0.06654 | 3.173
298.15 K, 101 kPa, x1 = 0.06668 | 3.182
298.15 K, 101 kPa, x1 = 0.07055 | 3.515
298.15 K, 101 kPa, x1 = 0.07902 | 4.414
298.15 K, 101 kPa, x1 = 0.08019 | 4.563
298.15 K, 101 kPa, x1 = 0.08048 | 4.6
298.15 K, 101 kPa, x1 = 0.08806 | 5.733
298.15 K, 101 kPa, x1 = 0.08818 | 5.754
298.15 K, 101 kPa, x1 = 0.09192 | 6.437
298.15 K, 101 kPa, x1 = 0.09327 | 6.707
298.15 K, 101 kPa, x1 = 0.09562 | 7.209
298.15 K, 101 kPa, x1 = 0.09975 | 8.198
298.15 K, 101 kPa, x1 = 0.1012 | 8.586
298.15 K, 101 kPa, x1 = 0.1071 | 10.34
298.15 K, 101 kPa, x1 = 0.1099 | 11.29
298.15 K, 101 kPa, x1 = 0.1131 | 12.5
298.15 K, 101 kPa, x1 = 0.1167 | 14.03
298.15 K, 101 kPa, x1 = 0.1168 | 14.08
298.15 K, 101 kPa, x1 = 0.1185 | 14.84
298.15 K, 101 kPa, x1 = 0.1243 | 17.82
298.15 K, 101.3 kPa, x1 = 0.03478 | 1.609
298.15 K, 101.3 kPa, x1 = 0.05127 | 2.238

CN(CCO)CCO + O
viscosity
Settings | 293.15 K | 298.15 K | 303.15 K | 308.15 K | 313.15 K | 323.15 K
100 kPa, x1 = 0.131 | – | 9.324 mPa·s | – | – | – | –
101 kPa, x1 = 0.06 | – | – | 2.548 mPa·s | – | 1.906 mPa·s | –
101 kPa, x1 = 0.1 | 7.325 mPa·s | – | 4.901 mPa·s | – | 3.458 mPa·s | 2.551 mPa·s
101 kPa, x1 = 0.11 | – | – | 5.312 mPa·s | – | 3.729 mPa·s | 2.777 mPa·s
101 kPa, x1 = 0.1991 | 26.19 mPa·s | – | 15.41 mPa·s | – | 9.684 mPa·s | 6.517 mPa·s
101 kPa, x1 = 0.2985 | 56.54 mPa·s | – | 31.07 mPa·s | – | 18.14 mPa·s | 11.42 mPa·s
101 kPa, x1 = 0.3975 | 84.73 mPa·s | – | 45.33 mPa·s | – | 25.74 mPa·s | 15.8 mPa·s
101 kPa, x1 = 0.4963 | 103.2 mPa·s | – | 54.91 mPa·s | – | 31.5 mPa·s | 18.96 mPa·s
101 kPa, x1 = 0.5949 | 113.9 mPa·s | – | 60.93 mPa·s | – | – | 20.85 mPa·s
101 kPa, x1 = 0.6934 | 115.5 mPa·s | – | 62.48 mPa·s | – | 35.73 mPa·s | 21.72 mPa·s
101 kPa, x1 = 0.7916 | 113.6 mPa·s | – | 61.99 mPa·s | – | 35.44 mPa·s | 21.95 mPa·s
101 kPa, x1 = 0.8896 | 109.8 mPa·s | – | 59.49 mPa·s | – | 35.12 mPa·s | –
101 kPa, x2 = 0.815 | – | 17.44 mPa·s | – | – | – | –
101 kPa, x2 = 0.9 | – | 9.66 mPa·s | – | – | – | –
101 kPa, x2 = 0.91 | 6.35 mPa·s | 5.4 mPa·s and 5.25 mPa·s | 4.34 mPa·s | – | – | –
101 kPa, x2 = 0.9391 | – | 3.27 mPa·s | – | – | – | –
101 kPa, x2 = 0.94 | 3.53 mPa·s | 2.99 mPa·s | 2.54 mPa·s | – | 1.89 mPa·s | 1.45 mPa·s
101 kPa, x2 = 0.96 | 2.264 mPa·s | 1.921 mPa·s | 1.695 mPa·s | – | 1.32 mPa·s | –
101.3 kPa, x1 = 0.02 | 1.541 mPa·s | 1.316 mPa·s | – | – | 0.931 mPa·s | 0.773 mPa·s
101.3 kPa, x1 = 0.04 | 2.268 mPa·s | 1.924 mPa·s | 1.697 mPa·s | – | 1.325 mPa·s | 1.068 mPa·s
101.3 kPa, x1 = 0.06 | 3.637 mPa·s | 3.036 mPa·s | 2.594 mPa·s | – | – | –
101.3 kPa, x1 = 0.09 | 6.345 mPa·s | 5.245 mPa·s | 4.325 mPa·s | – | 3.107 mPa·s | 2.367 mPa·s
101.3 kPa, x1 = 0.1 | 11.84 mPa·s | 9.196 mPa·s | 7.437 mPa·s | – | 5.101 mPa·s | 3.599 mPa·s
101.3 kPa, x1 = 0.2 | 22.64 mPa·s | 17.25 mPa·s | – | – | 8.843 mPa·s | 6.015 mPa·s
101.3 kPa, x1 = 0.3 | 37.14 mPa·s | 29.03 mPa·s | 22.69 mPa·s | – | 14.91 mPa·s | 9.618 mPa·s
101.3 kPa, x1 = 0.4 | 71.95 mPa·s | 58.29 mPa·s | 42.41 mPa·s | – | 24.45 mPa·s | 14.36 mPa·s
101.3 kPa, x1 = 0.6 | 101.9 mPa·s | 81.67 mPa·s | 54.66 mPa·s | – | 34.23 mPa·s | 19.22 mPa·s
101.33 kPa, x1 = 0.017 | – | – | 1.137 mPa·s | – | 0.907 mPa·s | –
101.33 kPa, x1 = 0.036 | 2.262 mPa·s | 1.941 mPa·s | 1.686 mPa·s | – | – | 1.051 mPa·s
101.33 kPa, x1 = 0.061 | 3.69 mPa·s | 3.092 mPa·s | – | – | – | –
101.33 kPa, x1 = 0.092 | 6.452 mPa·s | 5.253 mPa·s | 4.359 mPa·s | 3.671 mPa·s | 3.112 mPa·s | 2.309 mPa·s
101.33 kPa, x1 = 0.13 | 11.7 mPa·s | 9.208 mPa·s | 7.436 mPa·s | 6.097 mPa·s | – | 3.642 mPa·s
